Results reported in patent publication US12167744B2, “Nicotine liquid formulations for aerosol devices and methods thereof” (JUUL Labs, Inc., priority 2013, dated 2024).

Tests used:
[1] = thermal decomposition of the acid; cited from earlier work
[2] = nicotine:tartaric acid 1:2; in PG or VG or any mixture of PG and VG at ambient conditions
Excerpt: In some embodiments, acids that have poor solubility in the composition constituents are inappropriate for use in certain embodiments of the compositions herein. […] As used herein, weight percentage (w/w) refers to the weight of the individual component over the weight of the total formulation.

SMILES | decomposition temperature [1] | concentration at which no solution is produced [2]
O=C(O)CC(O)(CC(=O)O)C(=O)O [citric acid] | 175 °C | –
O=C(O)CC(O)C(=O)O (stereo not drawn) [malic acid] | 150 °C | –
CN1CCCC1c1cccnc1.O=C(O)C(O)C(O)C(=O)O (stereo not drawn) [nicotine bitartrate] | – | < 0.5 % (w/w) nicotine
